# Assays:
# [1] = molecular target: T1, N-arachidonyl glycine receptor (Mus musculus, UniProt Q8K1Z6)
# T1 sequence (Q8K1Z6 whole entry): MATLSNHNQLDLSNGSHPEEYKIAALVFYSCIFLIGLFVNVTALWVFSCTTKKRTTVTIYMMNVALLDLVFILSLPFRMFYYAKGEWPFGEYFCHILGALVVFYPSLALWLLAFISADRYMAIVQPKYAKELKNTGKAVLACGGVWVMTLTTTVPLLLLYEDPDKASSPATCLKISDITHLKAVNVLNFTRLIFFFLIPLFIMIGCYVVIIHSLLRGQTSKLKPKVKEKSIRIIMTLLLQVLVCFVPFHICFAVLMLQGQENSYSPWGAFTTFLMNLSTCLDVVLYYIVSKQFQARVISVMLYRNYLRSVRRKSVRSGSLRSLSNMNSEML
# Description: Agonist activity at mouse GPR18 expressed in CHO cells assessed as activation by measuring beta-arrestin2 recruitment incubated for 90 mins by luminescence based assay
# [2] = molecular target: T2, N-arachidonyl glycine receptor (Homo sapiens, UniProt Q14330); assay: Antagonist activity at human GPR18 receptor expressed in CHO cells assessed as inhibition of THC-induced activation by measuring beta-arrestin2 recruitment
# T2 sequence (Q14330 whole entry): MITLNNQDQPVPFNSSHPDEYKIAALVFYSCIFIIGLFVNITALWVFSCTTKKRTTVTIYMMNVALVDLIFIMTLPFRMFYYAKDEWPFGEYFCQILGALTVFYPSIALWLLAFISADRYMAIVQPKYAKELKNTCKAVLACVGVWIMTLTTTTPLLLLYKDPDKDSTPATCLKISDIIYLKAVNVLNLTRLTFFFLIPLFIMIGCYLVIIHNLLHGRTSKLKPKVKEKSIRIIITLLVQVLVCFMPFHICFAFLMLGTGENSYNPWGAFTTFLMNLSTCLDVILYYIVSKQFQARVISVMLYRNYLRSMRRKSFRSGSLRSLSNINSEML
# [3] = molecular target: T2, N-arachidonyl glycine receptor
# [4] = molecular target: T2, N-arachidonyl glycine receptor; assay: Agonist activity at human GPR18 expressed in CHO cells assessed as activation by measuring beta-arrestin2 recruitment incubated for 90 mins by luminescence based assay; format: functional, cell-based
# Cannabinoid receptor 2 = Cannabinoid receptor 2 (Homo sapiens, UniProt P34972); assay: Displacement of [3H]-CP55940 from human CB2 receptor expressed in CHO cells assessed as inhibition constant by radioligand competition binding assay; format: cell-based
# Cannabinoid receptor 1 = Cannabinoid receptor 1 (Homo sapiens, UniProt P21554); assay: Displacement of [3H]-CP55940 from human CB1 receptor expressed in CHO cells assessed as inhibition constant by radioligand competition binding assay; format: cell-based
# [5] = molecular target: T2, N-arachidonyl glycine receptor; assay: Agonist activity at human GPR18-eYFP and Renilla luc expressed in CHO cells assessed as beta-arrestin2 recruitment by BRET/beta-arrestin2 enzyme complementation assay
# [6] = molecular target: T3, G-protein coupled receptor 55 (Homo sapiens, UniProt Q9Y2T6); assay: Antagonist activity at human GPR55 expressed in CHO-K1 cells assessed as inhibition of beta-arrestin2 recruitment
# [7] = molecular target: T3, G-protein coupled receptor 55; assay: Agonist activity at human GPR55 expressed in CHO-K1 cells by beta-arrestin2 recruitment assay
# [8] = molecular target: G-protein coupled receptor 183 (Homo sapiens, UniProt P32249); assay: Agonist activity at human GPR183 expressed in PathHunter CHO-K1 cells assessed as activation by measuring beta-arrestin2 recruitment
# Sequence of G-protein coupled receptor 183 (P32249 whole entry): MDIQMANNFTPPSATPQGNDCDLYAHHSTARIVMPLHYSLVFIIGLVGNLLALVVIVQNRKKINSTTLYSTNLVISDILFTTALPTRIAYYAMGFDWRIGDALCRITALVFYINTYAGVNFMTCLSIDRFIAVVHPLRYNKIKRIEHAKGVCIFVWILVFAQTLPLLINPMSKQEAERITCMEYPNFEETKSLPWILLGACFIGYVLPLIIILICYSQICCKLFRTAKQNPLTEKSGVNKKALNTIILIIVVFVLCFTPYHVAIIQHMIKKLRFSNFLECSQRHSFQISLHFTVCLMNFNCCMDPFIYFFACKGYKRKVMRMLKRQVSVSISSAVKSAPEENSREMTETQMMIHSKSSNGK
# Sequence of Cannabinoid receptor 2 (P34972 whole entry): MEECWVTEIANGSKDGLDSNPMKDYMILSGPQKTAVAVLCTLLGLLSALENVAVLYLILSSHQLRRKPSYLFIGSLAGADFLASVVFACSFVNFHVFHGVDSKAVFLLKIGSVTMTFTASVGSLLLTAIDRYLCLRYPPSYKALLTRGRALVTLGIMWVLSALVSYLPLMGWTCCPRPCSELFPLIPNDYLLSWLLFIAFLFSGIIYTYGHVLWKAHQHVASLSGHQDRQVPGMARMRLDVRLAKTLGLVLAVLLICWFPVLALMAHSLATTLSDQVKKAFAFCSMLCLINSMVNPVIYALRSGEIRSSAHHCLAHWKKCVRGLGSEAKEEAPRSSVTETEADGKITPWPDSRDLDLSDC
# Sequence of Cannabinoid receptor 1 (P21554 whole entry): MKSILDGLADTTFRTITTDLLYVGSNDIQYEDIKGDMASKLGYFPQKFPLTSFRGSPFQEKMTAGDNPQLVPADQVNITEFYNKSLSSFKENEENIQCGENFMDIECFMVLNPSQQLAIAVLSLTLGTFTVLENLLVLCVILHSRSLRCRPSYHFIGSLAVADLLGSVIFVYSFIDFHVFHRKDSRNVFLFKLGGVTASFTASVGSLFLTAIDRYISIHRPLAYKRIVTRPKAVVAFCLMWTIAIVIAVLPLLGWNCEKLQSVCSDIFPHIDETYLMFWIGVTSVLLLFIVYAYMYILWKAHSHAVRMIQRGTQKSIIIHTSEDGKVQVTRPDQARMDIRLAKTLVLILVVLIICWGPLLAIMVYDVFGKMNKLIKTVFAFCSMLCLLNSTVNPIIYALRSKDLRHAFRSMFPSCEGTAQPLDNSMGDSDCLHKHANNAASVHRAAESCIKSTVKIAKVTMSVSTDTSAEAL
# T3 sequence (Q9Y2T6 whole entry): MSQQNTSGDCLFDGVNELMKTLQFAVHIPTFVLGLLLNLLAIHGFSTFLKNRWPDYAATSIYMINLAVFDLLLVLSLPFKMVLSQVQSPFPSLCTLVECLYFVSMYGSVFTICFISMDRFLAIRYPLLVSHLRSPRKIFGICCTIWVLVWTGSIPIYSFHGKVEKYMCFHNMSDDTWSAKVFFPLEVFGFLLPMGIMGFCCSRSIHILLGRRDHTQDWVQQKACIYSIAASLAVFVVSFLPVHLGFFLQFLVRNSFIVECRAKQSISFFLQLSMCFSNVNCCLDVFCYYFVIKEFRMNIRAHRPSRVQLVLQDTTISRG
Structure (SMILES),EC50 [1] [nM],EC50 [4] [nM],other results
Cn1c(=O)c2c(nc3n2CCCN3CCc2c[nH]c3ccccc23)n(C)c1=O,1780,,
O=C1/C(=C/c2cccc(OCCCCCCOc3ccc(Cl)cc3)c2)N=C2SCCCN12,,,IC50 [2]: 487 nM; IC50 [3]: 9910 nM
Cn1c(=O)c2c(nc3n2CCCCN3CCc2c[nH]c3ccccc23)n(C)c1=O,582,,
C=C(C)[C@@H]1CCC(C)=C[C@H]1c1c(O)cc(O)cc1CCCCC,> 10000,> 10000,
CCC#CCn1c(NCCc2c[nH]c3ccccc23)nc2c1c(=O)n(C)c(=O)n2C,371,254,
Cn1c(=O)c2c(nc(NCCc3c[nH]c4ccccc34)n2CCF)n(C)c1=O,2640,1390,
Cn1c(=O)c2c(nc(NCCc3c[nH]c4ccccc34)n2Cc2ccccc2)n(C)c1=O,194,149,
C=CCn1c(NCCc2c[nH]c3ccccc23)nc2c1c(=O)n(C)c(=O)n2C,379,169,
Cn1c(=O)c2c(nc(NCCc3c[nH]c4ccccc34)n2Cc2cccc(Cl)c2)n(C)c1=O,220,71,Ki (Cannabinoid receptor 2): 896 nM
Cn1c(=O)c2c(nc(NCCc3c[nH]c4ccccc34)n2Cc2cccc(Br)c2)n(C)c1=O,180,10,Ki (Cannabinoid receptor 2): 344 nM
CCCn1c(NCCc2c[nH]c3ccccc23)nc2c1c(=O)n(C)c(=O)n2C,299,196,
CCn1c(NCCc2c[nH]c3ccccc23)nc2c1c(=O)n(C)c(=O)n2C,379,190,
Cn1c(=O)c2c(nc(NCCc3c[nH]c4ccccc34)n2Cc2ccc(C(N)=O)cc2)n(C)c1=O,4000,3600,
Cn1c(=O)c2c(nc(NCCc3c[nH]c4ccccc34)n2Cc2ccc(Cl)c(Cl)c2)n(C)c1=O,90,74,
COc1cccc(Cn2c(NCCc3c[nH]c4ccccc34)nc3c2c(=O)n(C)c(=O)n3C)c1,245,166,
C#CCn1c(NCCc2c[nH]c3ccccc23)nc2c1c(=O)n(C)c(=O)n2C,318,247,
Cn1c(=O)c2c(nc(NCCc3c[nH]c4ccccc34)n2Cc2ccc(Cl)cc2)n(CC(F)(F)F)c1=O,711,,
Cn1c(=O)c2c(nc(NCCc3c[nH]c4ccccc34)n2Cc2c(Cl)cccc2Cl)n(C)c1=O,559,,
Cn1c(=O)c2c(nc(NCCc3c[nH]c4ccccc34)n2Cc2ccc(S(N)(=O)=O)cc2)n(C)c1=O,10900,6640,
Cn1c(=O)c2c(nc(NCCc3c[nH]c4ccccc34)n2Cc2ccc(Cl)c(F)c2)n(C)c1=O,121,,

Structure (SMILES),EC50 [1] [nM],EC50 [4] [nM],other results
CNS(=O)(=O)c1ccc(Cn2c(NCCc3c[nH]c4ccccc34)nc3c2c(=O)n(C)c(=O)n3C)cc1,3630,3670,
Cn1c(=O)c2c(nc(NCCc3c[nH]c4ccccc34)n2Cc2ccc(Cl)cc2Cl)n(C)c1=O,244,64,
Cn1c(=O)c2c(nc(NCCc3c[nH]c4ccccc34)n2Cc2cccc(F)c2)n(C)c1=O,301,,
CC(C)c1ccc(Cn2c(NCCc3c[nH]c4ccccc34)nc3c2c(=O)n(C)c(=O)n3C)cc1,150,,Ki (Cannabinoid receptor 2): 150 nM; Ki (Cannabinoid receptor 1; read-out: Ki): 6280 nM
Cn1c(=O)c2c(nc(NCCc3c[nH]c4ccccc34)n2Cc2ccc(C(F)(F)F)cc2)n(C)c1=O,216,136,
Cn1c(=O)c2c(nc(NCCc3c[nH]c4ccccc34)n2Cc2ccccc2Br)n(C)c1=O,156,189,Ki (Cannabinoid receptor 2): 1690 nM
Cn1c(=O)c2c(nc(NCCc3c[nH]c4ccccc34)n2Cc2ccc(Cl)cc2)n(CCO)c1=O,1200,,
Cn1c(=O)c2c(nc(NCCc3c[nH]c4ccccc34)n2Cc2ccc(Br)cc2)n(C)c1=O,58,,
Cn1c(=O)c2c(nc(NCCc3c[nH]c4ccccc34)n2Cc2ccc(F)c(Cl)c2)n(C)c1=O,251,193,
Cn1c(=O)c2c(nc(NCCc3c[nH]c4ccccc34)n2CCCc2ccccc2)n(C)c1=O,230,,
Cn1c(=O)c2c(nc(NCCc3c[nH]c4ccccc34)n2Cc2ccc(Cl)cc2)n(C)c1=O,54,19,EC50 [5]: 38 nM; Ki (Cannabinoid receptor 2): 481 nM; Ki (Cannabinoid receptor 1; read-out: Ki): 1180 nM; IC50 [6]: > 10000 nM; EC50 [7]: > 10000 nM
Cn1c(=O)c2c(nc(NCCc3c[nH]c4ccccc34)n2Cc2ccc(Cl)cc2)n(CCF)c1=O,398,351,
Cn1c(=O)c2c(nc(NCCc3c[nH]c4ccccc34)n2CCC2CCCCC2)n(C)c1=O,127,,
Cn1c(=O)[nH]c2nc(NCCc3c[nH]c4ccccc34)n(Cc3ccc(Cl)cc3)c2c1=O,290,206,
Cn1c(=O)c2c(nc(NCCc3c[nH]c4ccccc34)n2Cc2ccc(Cl)cc2)n(CC#N)c1=O,981,1220,
Cn1c(=O)c2c(nc(NCCc3c[nH]c4ccccc34)n2Cc2ccc([N+](=O)[O-])cc2)n(C)c1=O,280,,
CCCNS(=O)(=O)c1ccc(Cn2c(NCCc3c[nH]c4ccccc34)nc3c2c(=O)n(C)c(=O)n3C)cc1,1300,,
Cn1c(=O)c2c(nc(NCCc3c[nH]c4ccccc34)n2Cc2ccccc2Cl)n(C)c1=O,157,60,Ki (Cannabinoid receptor 2): > 10000 nM; Ki (Cannabinoid receptor 1; read-out: Ki): > 10000 nM
COC(=O)c1ccc(Cn2c(NCCc3c[nH]c4ccccc34)nc3c2c(=O)n(C)c(=O)n3C)cc1,488,469,
COc1ccc(Cn2c(NCCc3c[nH]c4ccccc34)nc3c2c(=O)n(C)c(=O)n3C)cc1,171,138,Ki (Cannabinoid receptor 1; cho): Not Active

Structure (SMILES),EC50 [1] [nM],EC50 [4] [nM],other results
Cc1ccc(Cn2c(NCCc3c[nH]c4ccccc34)nc3c2c(=O)n(C)c(=O)n3C)cc1,46,24,Ki (Cannabinoid receptor 2): 827 nM; Ki (Cannabinoid receptor 1; read-out: Ki): 3480 nM
CC(=O)Nc1ccc(Cn2c(NCCc3c[nH]c4ccccc34)nc3c2c(=O)n(C)c(=O)n3C)cc1,281,218,
Cn1c(=O)c2c(nc(NCCc3c[nH]c4ccccc34)n2Cc2ccc(F)c(F)c2)n(C)c1=O,161,142,
CCn1c(=O)n(C)c(=O)c2c1nc(NCCc1c[nH]c3ccccc13)n2Cc1ccc(Cl)cc1,297,95,
Cn1c(=O)c2c(nc(NCCc3c[nH]c4ccccc34)n2C)n(C)c1=O,2970,902,
Cn1c(=O)c2c(nc(NCCc3c[nH]c4ccccc34)n2Cc2ccccc2F)n(C)c1=O,128,137,
Cn1c(=O)c2c(nc(NCCc3c[nH]c4ccccc34)n2Cc2ccc(F)cc2)n(C)c1=O,124,54,
Cn1c(=O)c2c(nc(NCCc3c[nH]c4ccccc34)n2CCOc2ccc(Cl)cc2)n(C)c1=O,444,,
Cn1c(=O)c2c(nc(NCCc3c[nH]c4ccccc34)n2Cc2ccc(Cl)cc2)n(Cc2ccccc2)c1=O,393,> 10000,
CCCCn1c(NCCc2c[nH]c3ccccc23)nc2c1c(=O)n(C)c(=O)n2C,207,151,
CCCNC(=O)c1ccc(Cn2c(NCCc3c[nH]c4ccccc34)nc3c2c(=O)n(C)c(=O)n3C)cc1,1270,1410,
Cn1c(=O)c2c(nc(NCCc3c[nH]c4ccccc34)n2CCOc2ccccc2)n(C)c1=O,334,,
C=CCCn1c(NCCc2c[nH]c3ccccc23)nc2c1c(=O)n(C)c(=O)n2C,447,,
Cn1c(=O)c2c(nc(NCCc3c[nH]c4ccccc34)n2CCc2ccccc2)n(C)c1=O,288,442,
CCCn1c(=O)n(C)c(=O)c2c1nc(NCCc1c[nH]c3ccccc13)n2Cc1ccc(Cl)cc1,> 10000,> 10000,
Cn1c(=O)c2c(nc(NCCc3c[nH]c4ccccc34)n2Cc2ccc(N)cc2)n(C)c1=O,241,,
CCCCC/C=C\C/C=C\C/C=C\C/C=C\CCCC(=O)NCC(=O)O [ARACHIDONOYL GLYCINE],> 10000,> 10000,
CCCCCc1cc(O)c2c(c1)OC(C)(C)[C@@H]1CCC(C)=C[C@@H]21 [DRONABINOL],> 10000,3370,EC50 [8]: 38 nM
